Our source for the survival, log kill and stability values is patent US6482799B1, “Self-preserving multipurpose ophthalmic solutions incorporating a polypeptide antimicrobial” (The Regents of the University of California, priority 1999, dated 2002).

Each structure is given as a SMILES string.

For data set [1], the system named is Pseudomonas aeruginosa (ATCC 27853). The data set is described as follows: Protocol 1 kill curve / MIC, 1 hour at 37° C. in glass tubes. Format: cell-based. As for the experimental part:
This protocol is used to develop dose-response (kill) curves to calculate the minimal inhibitory concentration of an indolicidin (e.g., L-indolicidin (L-IND)) when formulated in a commercially available phosphate buffered saline (PBS) solution. In addition, for comparative purposes, kill curves are established for the following three commonly available commercial lens-care products containing different preservatives:
An initial dose range experiment is performed to determine a suitable dose range for the final experiment. The indolicidin (e.g., L-IND) is tested in the preliminary toxicity experiment at 13 different dose levels in a range between 500 μg/ml and 0.125 μg/ml. The 3 control samples with preservatives are tested at 13 different dose levels with the highest dose level representing the undiluted solution. […]
Viable counts of the bacteria are performed by 10-fold serial dilutions in sterile PBS and by plating 0.1 ml aliquots on nutrient agar plates. […] The plates are incubated overnight at 37° C. and colonies are counted and recorded. […]
Survival is expressed as number of surviving bacteria (CFU/ml) for each dilution of the test article and control solutions. The lowest dose of the test article that results in complete kill of the test organism, compared to the non-exposed control, is determined to be the MIC value. […]

The test system of another data set is S. aureus ATCC 6538. The data set is described as follows: Long-term (8 month) stability in commercial container (Rite-Aid) by S. aureus bioassay. Format: cell-based, Staphylococcus aureus. Conditions: 50 μg/ml; for log kill: 4 hours exposure; for stability: 8 months. As for the experimental part:
Long term stability of indolicidin was evaluated in a commercial container (Rite-Aid). The L-indolicidin concentration was 50 μg/ml formulated in a 10 mM sodium phosphate buffer, pH 7.4, with and without 0.85% sodium chloride. The test organism was S. aureus ATCC 6538. Sampling time was 0, 1, 2, 3, 4 and 8 months. The exposure time of the test organism was 0 and 4 hours.

Turning to `CC[C@H](C)[C@H](N)C(=O)N[C@@H](CC(C)C)C(=O)N1CCC[C@H]1C(=O)N[C@@H](Cc1c[nH]c2ccccc12)C(=O)N[C@@H](CCCCN)C(=O)N[C@@H](Cc1c[nH]c2ccccc12)C(=O)N1CCC[C@H]1C(=O)N[C@@H](Cc1c[nH]c2ccccc12)C(=O)N[C@@H](Cc1c[nH]c2ccccc12)C(=O)N1CCC[C@H]1C(=O)N[C@@H](Cc1c[nH]c2ccccc12)C(=O)N[C@@H](CCCNC(=N)N)C(=O)N[C@@H](CCCNC(=N)N)C(N)=O` [L-indolicidin, H2N-ILPWKWPWWPWRR-CONH2], the survival came out at 100% in data set [1] (all dose levels 100-6.25 μg/ml, 10 mM phosphate buffer pH 7.4, 2.01×10^5 CFU/ml) and 100% in data set [1] (all dose levels 5,000-1.25 μg/ml in PBS, 1 hour 37° C., 5.9×10^5 CFU/ml). Further, the log kill in the data set on S. aureus ATCC 6538 (10 mM SP pH 7.4, over 8 months) is listed as about 4 log; in the data set on S. aureus ATCC 6538 (10 mM SP with 0.85% NaCl, over 8 months), about 1 log. Further, the stability with S. aureus ATCC 6538 (10 mM SP with NaCl) and in the data set on S. aureus ATCC 6538 (10 mM SP) was 100% each time.
